Reference: the supplement of paper PMC8612539
Converted amounts (≈) assume the structure as drawn.

System: Mannheimia haemolytica
Experiment: minimum inhibitory concentration (MIC)
Experimental: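 Broth microdilution MIC (Sensititre BOPO7F bovine plate, CLSI methods) of 19 antimicrobials against field isolates of P. multocida, M. haemolytica, H. somni (deep nasopharyngeal swabs) and E. coli, Enterococcus spp. (rectal swabs) from weaned dairy heifers. Incubation 16-24 h at 35 C. MIC is the lowest concentration preventing visible growth. Values with <= or > lie at the tested range limits. Trimethoprim-sulfamethoxazole is given as the trimethoprim component of a 1:19 mixture.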

CN[C@@H]1[C@H](O)[C@H](NC)[C@H]2O[C@@]3(O)C(=O)C[C@@H](C)O[C@H]3O[C@@H]2[C@H]1O [Spectinomycin]
Details	minimum inhibitory concentration [µg/mL]
isolate (source animal id): 8	32 (≈ 96.3 µM)
isolate (source animal id): 13	32 (≈ 96.3 µM)
isolate (source animal id): 18	32 (≈ 96.3 µM)
isolate (source animal id): 21	32 (≈ 96.3 µM)
isolate (source animal id): 25	32 (≈ 96.3 µM)
isolate (source animal id): 27	32 (≈ 96.3 µM)
isolate (source animal id): 28	> 64
isolate (source animal id): 30	32 (≈ 96.3 µM)
isolate (source animal id): 31	> 64
isolate (source animal id): 32	32 (≈ 96.3 µM)
isolate (source animal id): 34	32 (≈ 96.3 µM)
isolate (source animal id): 36	32 (≈ 96.3 µM)
isolate (source animal id): 37	32 (≈ 96.3 µM)
isolate (source animal id): 40	32 (≈ 96.3 µM)
isolate (source animal id): 41	32 (≈ 96.3 µM)
isolate (source animal id): 43	32 (≈ 96.3 µM)
isolate (source animal id): 46	32 (≈ 96.3 µM)
isolate (source animal id): 49	32 (≈ 96.3 µM)
isolate (source animal id): 50	32 (≈ 96.3 µM)
isolate (source animal id): 51	32 (≈ 96.3 µM)
isolate (source animal id): 52	32 (≈ 96.3 µM)
isolate (source animal id): 53	32 (≈ 96.3 µM)
isolate (source animal id): 55	32 (≈ 96.3 µM)
isolate (source animal id): 56	32 (≈ 96.3 µM)
isolate (source animal id): 57	> 64
isolate (source animal id): 100	> 64
isolate (source animal id): 103	32 (≈ 96.3 µM)
isolate (source animal id): 107	32 (≈ 96.3 µM)
isolate (source animal id): 108	> 64
isolate (source animal id): 112	32 (≈ 96.3 µM)
isolate (source animal id): 113	> 64
isolate (source animal id): 121	32 (≈ 96.3 µM)
isolate (source animal id): 122	32 (≈ 96.3 µM)
isolate (source animal id): 123	> 64
isolate (source animal id): 126	32 (≈ 96.3 µM)
isolate (source animal id): 133	32 (≈ 96.3 µM)
isolate (source animal id): 135	> 64
isolate (source animal id): 138	32 (≈ 96.3 µM)
isolate (source animal id): 141	> 64
isolate (source animal id): 142	32 (≈ 96.3 µM)
isolate (source animal id): 145	16 (≈ 48.1 µM)
isolate (source animal id): 149	32 (≈ 96.3 µM)
isolate (source animal id): 151	32 (≈ 96.3 µM)
isolate (source animal id): 152	16 (≈ 48.1 µM)
isolate (source animal id): 154	32 (≈ 96.3 µM)
isolate (source animal id): 159	16 (≈ 48.1 µM)
isolate (source animal id): 162	16 (≈ 48.1 µM)
isolate (source animal id): 170	32 (≈ 96.3 µM)
isolate (source animal id): 171	32 (≈ 96.3 µM)
isolate (source animal id): 172	32 (≈ 96.3 µM)
isolate (source animal id): 173	32 (≈ 96.3 µM)
isolate (source animal id): 179	32 (≈ 96.3 µM)
isolate (source animal id): 180	32 (≈ 96.3 µM)
isolate (source animal id): 183	32 (≈ 96.3 µM)
isolate (source animal id): 186	32 (≈ 96.3 µM)
isolate (source animal id): 187	32 (≈ 96.3 µM)
isolate (source animal id): 188	32 (≈ 96.3 µM)
isolate (source animal id): 190	32 (≈ 96.3 µM)
isolate (source animal id): 191	32 (≈ 96.3 µM)
isolate (source animal id): 192	32 (≈ 96.3 µM)
isolate (source animal id): 201	32 (≈ 96.3 µM)
isolate (source animal id): 202	32 (≈ 96.3 µM)
isolate (source animal id): 209	32 (≈ 96.3 µM)
isolate (source animal id): 211	32 (≈ 96.3 µM)
isolate (source animal id): 220	32 (≈ 96.3 µM)
isolate (source animal id): 221	32 (≈ 96.3 µM)
isolate (source animal id): 223	≤ 8
isolate (source animal id): 233	32 (≈ 96.3 µM)
isolate (source animal id): 237	32 (≈ 96.3 µM)
isolate (source animal id): 241	32 (≈ 96.3 µM)
isolate (source animal id): 252	32 (≈ 96.3 µM)
isolate (source animal id): 253	> 64
isolate (source animal id): 259	32 (≈ 96.3 µM)
isolate (source animal id): 260	> 64
isolate (source animal id): 262	32 (≈ 96.3 µM)
isolate (source animal id): 282	32 (≈ 96.3 µM)
isolate (source animal id): 287	32 (≈ 96.3 µM)
isolate (source animal id): 288	32 (≈ 96.3 µM)
isolate (source animal id): 291	32 (≈ 96.3 µM)
isolate (source animal id): 293	16 (≈ 48.1 µM)
isolate (source animal id): 298	16 (≈ 48.1 µM)
isolate (source animal id): 299	32 (≈ 96.3 µM)
isolate (source animal id): 300	32 (≈ 96.3 µM)
isolate (source animal id): 302	32 (≈ 96.3 µM)
isolate (source animal id): 304	32 (≈ 96.3 µM)
isolate (source animal id): 306	32 (≈ 96.3 µM)
isolate (source animal id): 308	32 (≈ 96.3 µM)
isolate (source animal id): 309	32 (≈ 96.3 µM)
isolate (source animal id): 313	16 (≈ 48.1 µM)
isolate (source animal id): 318	16 (≈ 48.1 µM)
isolate (source animal id): 320	32 (≈ 96.3 µM)
isolate (source animal id): 321	16 (≈ 48.1 µM)
isolate (source animal id): 323	32 (≈ 96.3 µM)
isolate (source animal id): 324	16 (≈ 48.1 µM)
isolate (source animal id): 326	16 (≈ 48.1 µM)
isolate (source animal id): 328	16 (≈ 48.1 µM)
isolate (source animal id): 329	16 (≈ 48.1 µM)
isolate (source animal id): 333	16 (≈ 48.1 µM)
isolate (source animal id): 335	16 (≈ 48.1 µM)
isolate (source animal id): 338	16 (≈ 48.1 µM)

CN(C)[C@@H]1C(O)=C(C(N)=O)C(=O)[C@@]2(O)C(O)=C3C(=O)c4c(O)cccc4[C@@](C)(O)[C@H]3C[C@@H]12 [Tetracycline]
Details	minimum inhibitory concentration [µg/mL]
isolate (source animal id): 8	> 8
isolate (source animal id): 13	> 8
isolate (source animal id): 18	> 8
isolate (source animal id): 21	> 8
isolate (source animal id): 25	4 (≈ 9 µM)
isolate (source animal id): 27	8 (≈ 18 µM)
isolate (source animal id): 28	8 (≈ 18 µM)
isolate (source animal id): 30	> 8
isolate (source animal id): 31	> 8
isolate (source animal id): 32	> 8
isolate (source animal id): 34	8 (≈ 18 µM)
isolate (source animal id): 36	8 (≈ 18 µM)
isolate (source animal id): 37	8 (≈ 18 µM)
isolate (source animal id): 40	> 8
isolate (source animal id): 41	8 (≈ 18 µM)
isolate (source animal id): 43	> 8
isolate (source animal id): 46	8 (≈ 18 µM)
isolate (source animal id): 49	4 (≈ 9 µM)
isolate (source animal id): 50	8 (≈ 18 µM)
isolate (source animal id): 51	8 (≈ 18 µM)
isolate (source animal id): 52	> 8
isolate (source animal id): 53	> 8
isolate (source animal id): 55	> 8
isolate (source animal id): 56	> 8
isolate (source animal id): 57	> 8
isolate (source animal id): 100	> 8
isolate (source animal id): 103	4 (≈ 9 µM)
isolate (source animal id): 107	4 (≈ 9 µM)
isolate (source animal id): 108	> 8
isolate (source animal id): 112	> 8
isolate (source animal id): 113	> 8
isolate (source animal id): 121	8 (≈ 18 µM)
isolate (source animal id): 122	4 (≈ 9 µM)
isolate (source animal id): 123	> 8
isolate (source animal id): 126	4 (≈ 9 µM)
isolate (source animal id): 133	> 8
isolate (source animal id): 135	> 8
isolate (source animal id): 138	4 (≈ 9 µM)
isolate (source animal id): 141	> 8
isolate (source animal id): 142	> 8
isolate (source animal id): 145	4 (≈ 9 µM)
isolate (source animal id): 149	≤ 0.5
isolate (source animal id): 151	≤ 0.5
isolate (source animal id): 152	4 (≈ 9 µM)
isolate (source animal id): 154	≤ 0.5
isolate (source animal id): 159	4 (≈ 9 µM)
isolate (source animal id): 162	4 (≈ 9 µM)
isolate (source animal id): 170	8 (≈ 18 µM)
isolate (source animal id): 171	≤ 0.5
isolate (source animal id): 172	8 (≈ 18 µM)
isolate (source animal id): 173	8 (≈ 18 µM)
isolate (source animal id): 179	4 (≈ 9 µM)
isolate (source animal id): 180	4 (≈ 9 µM)
isolate (source animal id): 183	4 (≈ 9 µM)
isolate (source animal id): 186	4 (≈ 9 µM)
isolate (source animal id): 187	4 (≈ 9 µM)
isolate (source animal id): 188	4 (≈ 9 µM)
isolate (source animal id): 190	≤ 0.5
isolate (source animal id): 191	8 (≈ 18 µM)
isolate (source animal id): 192	≤ 0.5
isolate (source animal id): 201	8 (≈ 18 µM)
isolate (source animal id): 202	4 (≈ 9 µM)
isolate (source animal id): 209	8 (≈ 18 µM)
isolate (source animal id): 211	≤ 0.5
isolate (source animal id): 220	8 (≈ 18 µM)
isolate (source animal id): 221	4 (≈ 9 µM)
isolate (source animal id): 223	4 (≈ 9 µM)
isolate (source animal id): 233	4 (≈ 9 µM)
isolate (source animal id): 237	≤ 0.5
isolate (source animal id): 241	8 (≈ 18 µM)
isolate (source animal id): 252	4 (≈ 9 µM)
isolate (source animal id): 253	> 8
isolate (source animal id): 259	8 (≈ 18 µM)
isolate (source animal id): 260	> 8
isolate (source animal id): 262	4 (≈ 9 µM)
isolate (source animal id): 282	4 (≈ 9 µM)
isolate (source animal id): 287	8 (≈ 18 µM)
isolate (source animal id): 288	≤ 0.5
isolate (source animal id): 291	≤ 0.5
isolate (source animal id): 293	4 (≈ 9 µM)
isolate (source animal id): 298	> 8
isolate (source animal id): 299	> 8
isolate (source animal id): 300	≤ 0.5
isolate (source animal id): 302	> 8
isolate (source animal id): 304	> 8
isolate (source animal id): 306	≤ 0.5
isolate (source animal id): 308	≤ 0.5
isolate (source animal id): 309	≤ 0.5
isolate (source animal id): 313	4 (≈ 9 µM)
isolate (source animal id): 318	4 (≈ 9 µM)
isolate (source animal id): 320	≤ 0.5
isolate (source animal id): 321	4 (≈ 9 µM)
isolate (source animal id): 323	> 8
isolate (source animal id): 324	8 (≈ 18 µM)
isolate (source animal id): 326	4 (≈ 9 µM)
isolate (source animal id): 328	8 (≈ 18 µM)
isolate (source animal id): 329	4 (≈ 9 µM)
isolate (source animal id): 333	4 (≈ 9 µM)
isolate (source animal id): 335	4 (≈ 9 µM)
isolate (source animal id): 338	4 (≈ 9 µM)
